Calls of active or inactive are those of the source.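 How the source made its calls: active means compounds giving half or more protection of infected cells from virus-caused growth loss, again on retest; inactive means the rest.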 Where a SMILES comes first, the peptide text is derived from it.
System: CEM cells HIV-1 protection, formazan growth assay
Experiment: NCI AIDS Antiviral Assay
Settings: for IC50: measured here: growth of uninfected CEM cells
In short: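 Protection of CEM cells against HIV-1 was scored from cell growth (soluble formazan) across five concentrations, with parallel uninfected cells. Lack of protection may reflect toxicity.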

Row | SMILES | EC50 | IC50 | outcome
1 | CC1OC(OC2C(O[C@@H]3C[C@@H]4CC[C@@H]5[C@H](CC[C@]6(C)[C@@H]7[C@H](C[C@@H]56)O[C@]5(CC[C@@H](C)CO5)[C@H]7C)[C@@]4(C)C[C@H]3O)OC(CO)C(OC3OC(CO)C(O)C(O)C3O)C2O)C(O)C(O)C1O (stereo partly drawn) | > 10 µM | 1.82 µM | –
2 | COc1ccc(C(=O)CC(c2ccc3c(c2)OCO3)c2c(O)c3ccccc3oc2=O)cc1OC (stereo not drawn) | > 200 µM | 89.1 µM | –
3 | CN(C)C(=N/O)/C(=N\O)N(C)C | – | – | inactive
4 | COC(=O)NC(Cc1ccccc1)NC(C)=O (stereo not drawn) | > 200 µM | > 200 µM | –
5 | CCOC1OC2O[C@]3(C)CCC4C(C)CCC([C@H]1C)C24OO3 (stereo partly drawn) | – | – | inactive
6 | CC[C@@H]1C[C@@H](O)[C@@H]2[C@H](O)[C@H](O)CN2C1 | > 200 µM | > 200 µM | –
7 | CC1=CCC[C@H]2[C@](C)(CC3=CC(=O)C(SCC(C)C)=CC3=O)[C@@H](C)CC[C@]12C | > 200 µM | 2.14 µM | –
8 | CC(=O)NC(CCCCN(Cc1ccccc1)C(=O)N(C)N=O)C(=O)NCc1ccccc1 (stereo not drawn) | > 110 µM | 93.3 µM | –
9 | CC(C)CN1CC(C)C(=O)NC1=O (stereo not drawn) | – | – | inactive
10 | O=C(CSc1ncn[nH]1)C[P+](c1ccccc1)(c1ccccc1)c1ccccc1 | – | – | inactive
11 | O=NNc1ccc2ccccc2n1 | > 200 µM | > 200 µM | –
12 | CC(NC(=O)CNC(=O)C(N)CO)C(=O)NC(CCC(N)=O)C(=O)NC(CCC(=O)O)C(=O)NC(C)C(=O)NC(CCC(=O)O)C(=O)NC(CCCCN)C(=O)NC(CCC(N)=O)C(=O)NC(CCCN=C(N)N)C(=O)NC(C(=O)NC(CC(N)=O)C(=O)NC(C)C(=O)NC(Cc1cnc[nH]1)C(=O)NC(CO)C(=O)O)C(C)O (stereo not drawn) (H-SGAQEAEKQRTNAHS-OH; configuration not given here) | > 100 µM | > 100 µM | –
13 | CCOC(=O)c1nc(SC)sc1NC(=O)c1ccccc1[N+](=O)[O-] | 195 µM | > 200 µM | –
14 | c1cnc2c(c1)Oc1nc3ccccc3nc1S2 | > 91.2 µM | 14.5 µM | –
15 | Cc1ccccc1C=NC12CC3CC(CC(C3)C1)C2 | > 53.7 µM | > 53.7 µM | –
16 | O=C1NC(=O)[C@@]2(CC[C@@H](O)C2)c2ccncc21 | > 562 µM | 447 µM | –
17 | CC(C)OP(=O)(OC(C)C)/C(I)=N/Nc1ccc([N+](=O)[O-])cc1 | > 110 µM | > 110 µM | –
18 | CCCCOC1NC(=O)NC(=O)C1(F)C(=O)OCC (stereo not drawn) | > 200 µM | 6.61 µM | –
19 | COc1ccc(C=C(C(=O)O)C(=O)O)cc1 | > 1120 µM | > 1120 µM | –
20 | O=C(Cc1nccc2c1[nH]c1ccccc12)OC1C#CCSCC#C/C=C\1 (stereo not drawn) | > 200 µM | 28.2 µM | –
21 | CC(=O)Nc1ccc(NCC(=O)Nn2cnc3ccc(S(=O)(=O)Nc4ccc(NC(C)=O)cc4)cc3c2=O)cc1 | > 200 µM | 191 µM | –
22 | COc1cc2c(cc1OC)C13CCN4CC5=CCOC6CC(=O)N2C1C6C5CC43 (stereo not drawn) (tested in a mixture with another compound) | > 200 µM | 53.7 µM | –

Row | SMILES | EC50 | IC50 | outcome
23 | COc1ccc(N2C(=O)C3c4[nH]c5c(C)cccc5c4C4CCC(C(C)(C)C)CC4C3C2=O)cc1 (stereo not drawn) | > 200 µM | 7.94 µM | –
24 | N#Cc1c2c(c(N)oc1=O)C(c1ccccc1)CC(=O)N2 (stereo not drawn) | > 200 µM | > 200 µM | –
25 | CC(=O)OCCCOCn1cc(C)c(=O)[nH]c1=O | > 200 µM | > 200 µM | –
26 | C#C[C@]1(O)CCC2C3CCc4cc(Oc5nc(F)nc(-n6c(C)nc7cc8ccccc8cc76)n5)ccc4C3CCC21C (stereo partly drawn) | > 200 µM | 28.2 µM | –
27 | CC(C)(C)OC(=O)NCCCCC(NC(=O)OCc1ccccc1)C(N)=O (stereo not drawn) | > 200 µM | > 200 µM | –
28 | Cc1cc2nnn(C3CCCO3)c2cc1C (stereo not drawn) | > 200 µM | > 200 µM | –
29 | COc1ccc(C2Oc3cc(OC)c(OC)cc3C2CCl)cc1OC (stereo not drawn) | > 200 µM | 107 µM | –
30 | CC1(C)OC(=O)C(=Cc2cccc(Cl)c2)C(=O)O1 | > 490 µM | > 200 µM | –
31 | CC1CC(c2ccccc2)=Nc2ccccc2S1 (stereo not drawn) | > 14.1 µM | > 14.1 µM | –
32 | CC1(C)C2C=CC1C(=O)CC2 (stereo not drawn) | > 389 µM | > 389 µM | –
33 | O=C(CN1CCN(C(=O)OCc2ccccc2)CCN(CC(=O)N2CCCCC2)CCN(C(=O)OCc2ccccc2)CC1)N1CCCCC1 | > 200 µM | 10.2 µM | –
34 | O=c1c(SCc2ccccc2)c(N2CCCCC2)cnn1-c1ccccc1 | > 69.2 µM | > 69.2 µM | –
35 | C=C(C)C#CC1(O)C=C(OC)C(OC)=CC1=O (stereo not drawn) | > 200 µM | 20.9 µM | –
36 | CCOC(=O)c1c(C)cc(=O)n2c1[nH]c1ccccc12 | > 200 µM | 151 µM | –
37 | C#CC(O)CS(=O)(=O)c1ccccc1 (stereo not drawn) | > 100 µM | > 100 µM | –
38 | Cc1ccc(N=C2SC(c3ccc(C)cc3)(c3ccc(C)cc3)c3ccccc32)cc1 | > 200 µM | > 200 µM | –
39 | CCOc1ccccc1N=Nc1ccc2oc(=O)c(C(C)=O)cc2c1 | > 8.13 µM | > 8.13 µM | –
40 | NC1=C(c2ccccc2)C(=O)c2ccccc21 | > 61.7 µM | > 61.7 µM | –
41 | Cc1ccc(N=NC(=O)NNc2ccc(C)c([N+](=O)[O-])c2)cc1[N+](=O)[O-] | > 200 µM | 63.1 µM | –
42 | Brc1ccc(/C(N=N/C(=N\Sc2ccccc2)c2ccc(Br)cc2)=N/Sc2ccccc2)cc1 | > 50.1 µM | > 50.1 µM | –
43 | CC(=O)c1ccccc1NC(=O)C(=O)C(C(=O)c1ccccc1-c1ccccc1)C1OC(=O)c2ccccc21 (stereo not drawn) | > 50.1 µM | 26.9 µM | –
44 | CCOP(=O)(CCP(=O)(OCC)OCC)OCC.C[CH2][Sn]([Cl])([Cl])[CH2]C | – | – | inactive

Row | SMILES | EC50 | IC50 | outcome
45 | CCOC(=O)C1C(c2ccc3c(c2)OCO3)c2c([nH][nH]c2=O)CC1(O)OCC (stereo not drawn) | > 200 µM | > 200 µM | –
46 | C[C@@]12c3c4ccc(C=O)c3Oc3ccc(C=O)c(c31)Oc1c(C=O)ccc(c12)O4 | > 50.1 µM | > 50.1 µM | –
47 | C/C(=N\NC(=S)N(C)C)c1ncc[nH]1 | > 234 µM | 4.27 µM | –
48 | C1=CC2C(c3cn(-c4ccccc4)nc31)C1C2C2C=CC3C(C=C2)C31 (stereo not drawn) | > 3.24 µM | > 3.24 µM | –
49 | CCOC(=O)c1ccn2c(c1)c(C#N)c1nc3ccccc3nc12 | > 16.6 µM | > 16.6 µM | –
50 | N#Cc1ccc(SSc2ccc(C#N)cc2)cc1 | > 200 µM | 9.55 µM | –
51 | O=C(/C=C/c1c(O)ccc2ccccc12)c1ccc([N+](=O)[O-])cc1 | 33.9 µM | 58.9 µM | –
52 | N#CC1=C(N2CCOCC2)CCC1 | > 200 µM | > 200 µM | –
53 | Cc1cccc(C)c1NC(=O)CCC(=O)NC(N)=NC#N | > 457 µM | > 457 µM | –
54 | Cc1ccc(Cl)c2c(=O)c3ccc([N+](=O)[O-])cc3sc12 | > 151 µM | > 151 µM | –
55 | COC(=O)[C@H]1[C@@H](C(C)C)O[C@@H](C(C)C)O[C@H]1C(F)(F)F | > 200 µM | > 200 µM | –
56 | CCOC(=O)C(N)CSSCC(N)C(=O)OCC (stereo not drawn) | > 200 µM | > 200 µM | –
57 | COc1ccc(NC(C)c2ccncc2)cc1 (stereo not drawn) | > 200 µM | > 200 µM | –
58 | NC(=S)N/N=C/c1ncccc1O | > 12.6 µM | 0.794 µM | –
59 | COc1ccc(-c2cc(-c3ccncc3)nc(N)c2-c2ccc(F)cc2)cc1 | > 174 µM | > 174 µM | –
60 | O=S1(=O)OC(c2cc(Cl)c(O)c(Br)c2)(c2cc(Cl)c(O)c(Br)c2)c2ccccc21 | 380 µM | 501 µM | –
61 | COC(=O)c1ccccc1NC(=S)NN(C)C | > 200 µM | 151 µM | –
62 | Nc1cc(S(=O)(=O)O)c(O)c2c1C(=O)c1c(O)c(S(=O)(=O)O)cc(N)c1C2=O | – | – | inactive
63 | N#CC(C#N)=Cn1c(=S)[nH]c2ccc([N+](=O)[O-])cc21 | > 200 µM | 89.1 µM | –
64 | COc1cc(C2C(C(=O)Nc3ccc([N+](=O)[O-])cc3)=C(C)NC(C)=C2C(=O)Nc2ccc([N+](=O)[O-])cc2)ccc1O | > 9.33 µM | > 9.33 µM | –
65 | COc1cc(NCCCNCC(C)(C)C)c2ncccc2c1 | > 200 µM | 81.3 µM | –
66 | CC1C2(C)OCC(C#N)(C(=N)O2)C1(C#N)C#N (stereo not drawn) | > 200 µM | 20.9 µM | –

Row | SMILES | EC50 | IC50 | outcome
67 | O=S1(=O)CCN(c2ccccc2CC(c2c[nH]c3ccccc23)c2c[nH]c3ccccc23)CC1 | > 5.75 µM | > 5.75 µM | –
68 | CN1CCCC(O)C1CNC12CC3CC(CC(C3)C1)C2 (stereo not drawn) | > 794 µM | 245 µM | –
69 | O=CNc1cccc2c(=O)[nH][nH]c(=O)c12 | > 126 µM | > 126 µM | –
70 | N/N=C1/C(=O)N(c2ccc(Cl)cc2)C(=O)C(=O)C1c1nc2ccccc2s1 (stereo not drawn) | > 18.2 µM | > 18.2 µM | –
71 | CCCCCCc1nn2c(-c3ccc(C)cc3)nnc2s1 | > 200 µM | > 200 µM | –
72 | CC(C)C1CO[C@]2(C)CCC(=O)N12 (stereo partly drawn) | > 1350 µM | > 1350 µM | –
73 | NC(=O)c1c2c(cc3c(=O)c4ccccc4[nH]c13)CCCC2 | – | – | inactive
74 | Cc1cc(O)c2c(c1)C(=O)C(c1c(C)cc3c(c1O)C(=O)C1OC1C3=O)=CC2=O (stereo not drawn) | > 174 µM | 0.0933 µM | –
75 | O=c1c2ccccc2n2n1CC(O)C2 (stereo not drawn) | – | – | inactive
76 | Cc1ccc(OCCn2cc(Nc3ccccc3)c(=O)n(CCOc3ccc(C)cc3)c2=O)cc1 | > 200 µM | 174 µM | –
77 | CCOC(=O)c1cc2c3ccn(Cc4ccccc4)c3c3c(C)[nH]oc3c2n1 | 26.3 µM | > 200 µM | –
78 | N#Cc1cn(-c2c3ccccc3nc3ccccc23)c(=O)[nH]c1=O | > 214 µM | 0.288 µM | –
79 | O=C(O)CCc1cccc2c1oc1c(CCC(=O)O)cccc12 | > 794 µM | 191 µM | –
80 | Cn1c(-c2ccccc2)cc(-c2ccc3c(c2)OCO3)c1-c1cccs1 | > 200 µM | > 200 µM | –
81 | O=C1c2ccccc2C(=O)N1CSS(=O)(=O)O | > 200 µM | > 200 µM | –
82 | COc1c2occc2c(N=Cc2ccc([N+](=O)[O-])cc2)c2ccc(=O)oc12 | > 34.7 µM | > 34.7 µM | –
83 | Cc1ccc(S(=O)(=O)NCCCN(CCCNS(=O)(=O)c2ccc(C)cc2)S(=O)(=O)c2ccc(C)cc2)cc1 | > 2.45 µM | > 2.45 µM | –
84 | COc1cc2c3c(c1)ncn3C(=O)CS2 | > 200 µM | > 100 µM | –
85 | O=C(O)CN1CCN2CCCCCCCCN(CC1)CCN(CC(=O)O)CC2 | > 200 µM | 13.2 µM | –
86 | C[Si](C)(C)C(CCCCSc1ccccc1)(Sc1ccccc1)Sc1ccccc1 | – | – | inactive

Reference: PubChem BioAssay AID179 (DTP/NCI, 2004)
